# US10161932B2, “Azetidine-substituted fluorescent compounds” (HOWARD HUGHES MEDICAL INSTITUTE, priority 2014, dated 2018)
# How the values were obtained:
# [1] = tested on: HaloTag-histone 2B (H2B) fusion; assay: Live-cell confocal labeling of HaloTag-H2B; type: cell-based; conditions: live cells expressing HaloTag-H2B
# Protocol: (§1) The labeling kinetics of TMR and JF549 HaloTag ligands were compared with a novel Cy3 HaloTag ligand while measuring the brightness and photon yield of the resulting conjugates.
# (§2) HeLa cells (ATCC) and U2OS cells (ATCC) were cultured in Dulbecco's modified eagle medium (DMEM; Life Technologies) supplemented with 10% v/v fetal bovine serum (FBS; Life Technologies), 1 mM GlutaMax (Life Technologies), and 1 mM sodium pyruvate (Sigma) and maintained at 37° C. in a humidified 5% v/v CO2 environment. These cell lines undergo regular mycoplasma testing by the Janelia Cell Culture Facility. Cells were transfected with HaloTag-H2B, HaloTag-tubulin, SnapTag-TetR, or SnapTag-H2B using an Amaxa Nucleofector (Lonza). […]
# (§3) Three separate systems were used to acquire microscopic images. […] Other live-cell single super-resolution imaging experiments were recorded on a custom-built three-camera RAMM frame (ASI) microscope using an 1.4 NA PLAPON 60×OSC objective (Olympus), and a 300 mm focal length tube lens (LAO-300.0, Melles Griot), resulting in 100× overall magnification. […] Fluorescence was detected with a back-illuminated EMCCD camera (Andor Technology, Ixon Ultra DU-897U-CSO-EXF, 17 MHz EM amplifier), which was controlled through Micro-Manager (1.4.17).
# [2] = tested on: HaloTag; assay: Labeling kinetics and brightness of HaloTag ligand conjugates in vitro; type: biochemical; conditions: compared with TMR and Cy3 HaloTag ligands
# Text: as §1
# [3] = tested on: HaloTag protein; conditions: ligand 5 μM, 10 mM HEPES pH 7.3 with 0.1 mg·mL^−1 CHAPS
# Protocol: To measure fluorescence of HaloTag ligands upon reaction with HaloTag protein, absorbance measurements were performed in 1 mL quartz cuvettes. HaloTag protein was used as a 100 μM solution in 75 mM NaCl, 50 mM TRIS. HCl, pH 7.4 with 50% v/v glycerol (TBS-glycerol). HaloTag ligands of JF646 and SiTMR (5 μM) were dissolved in 10 mM HEPES, pH 7.3 containing 0.1 mg·mL^−1 CHAPS. An aliquot of HaloTag protein (1.5 equiv) or an equivalent volume of TBS-glycerol blank was added and the resulting mixture was incubated until consistent absorbance signal was observed (˜30 min). […] Absorbance scans are averages (n=2).
# [4] = tested on: HaloTag-H2B; assay: No wash wide-field imaging of live HeLa cells expressing HaloTag-H2B; type: cell-based; conditions: ligand 100 nM
# Protocol: Next, “no wash” imaging experiments were performed using cells expressing the HaloTag-H2B fusion.
# as §2, with “(Lonza). Before the imaging experiments, transfected cells were transferred onto a No. 1 coverslip (Warner Instruments) that was cleaned by Piranha solution (3:1 v/v mixture of concentrated H2SO4 and 30% v/v hydrogen peroxide).” for “(Lonza).”
# as §3
SMILES,live-cell labeling / cell permeability [1],labeling kinetics [2],increase in absorbance upon reaction with excess HaloTag protein [3] [fold],nonspecific staining / background [4]
"O=C(NCCOCCOCCCCCCCl)c1ccc(C(=O)[O-])c(-c2c3ccc(=[N+]4CCC4)cc-3oc3cc(N4CCC4)ccc23)c1 [Example 21, 4-((2-(2-((6-Chlorohexyl)oxy)ethoxy)ethyl)carbamoyl)-2-(3,6-di(azetidin-1-yl)xanthylium-9-yl)benzoate]",efficiently crossed the membrane of live cells and selectively labeled the HaloTag protein,comparable labeling kinetics to the TMR ligand,–,–
"C[Si]1(C)C2=CC(=[N+]3CCC3)C=CC2=C(c2cc(C(=O)NCCOCCOCCCCCCCl)ccc2C(=O)[O-])c2ccc(N3CCC3)cc21 [Example 35, 4-((2-(2-((6-Chlorohexyl)oxy)ethoxy)ethyl)carbamoyl)-2-(3,7-di(azetidin-1-yl)-5,5-dimethyldibenzo[b,e]silin-10-ylium-10(5H)-yl)benzoate]",–,–,21,lower nonspecific staining
